# Assay results reported in US11098061B2 (Celgene CAR LLC, priority 2013, dated 2021).
# Experiments:
# [1] = target: T1, MK2 (Homo sapiens (Human), UniProt P49137); test: MK2 cellular assay (Hsp27 phosphorylation in Thp-1 cells); assay type: cell-based; settings: differentiated Thp-1 cells, compound 1 hour, 50 ng/ml LPS 15 minutes, phosphorylation of Hsp27; read-out: MK2EC50
# Protocol: Compounds were assayed in Thp-1 human acute monocytic leukemia cells to measure inhibition of MK2 activity. Thp-1 were grown in suspension in T225 flasks. Two days prior to assay, Thp-1 cells were spun down, counted and plated at 1×10^6 cells per well of a 12 well plate in complete media containing 10 ng/ml PMA (phorbol myristate acetate) to differentiate the cells. On day of assay, cells were washed with complete media, and compound was added to differentiated Thp-1 cells for 1 hour. Cells were washed again, and complete media containing 50 ng/ml LPS (lipopolysaccharide) was added. After 15 minutes, cells were washed once with PBS and lysed on ice with BioRad Bioplex lysis buffer. 20 μg total protein from lysates were loaded on gel and blots were probed for phosphorylation of the MK2 substrate Hsp27. Dose response inhibition of MK2 signaling in differentiated Thp-1 cells was used to determine the EC50 for compounds reported in Table A in the column entitled “MK2 EC50.”
# [2] = target: T1, MK2; test: MK2 modification assessment by whole protein mass spectrometry; assay type: binding; settings: intact MK2, 60 min, 10-fold excess of compound to protein
# Procedure, shortened: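 MK2 treated with compound is analysed intact by MALDI-TOF after C4 cleanup in sinapinic acid matrix. Percent modification is the centroid mass shift against control MK2 divided by compound mass.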
# [3] = target: p38a activated, mitogen-activated protein kinase-activated protein kinase 2 (MAPKAP-K2 or MK-2) enzyme (Homo sapiens (Human), UniProt P49137); test: MK2 Omnia continuous-read kinase assay for compound potency; assay type: biochemical; settings: [MK-2]=0.4 nM, [ATP]=1.0 mM, [ST3-Sox]=10 μM
# Procedure, shortened: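 Continuous Omnia fluorescence read (λex360/λem485) every 71 s after starting with 0.4 nM MK-2, with 1.0 mM ATP (appKM 8-10 μM) and 10 μM ST3-Sox substrate.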
# T1 sequence (P49137 whole entry): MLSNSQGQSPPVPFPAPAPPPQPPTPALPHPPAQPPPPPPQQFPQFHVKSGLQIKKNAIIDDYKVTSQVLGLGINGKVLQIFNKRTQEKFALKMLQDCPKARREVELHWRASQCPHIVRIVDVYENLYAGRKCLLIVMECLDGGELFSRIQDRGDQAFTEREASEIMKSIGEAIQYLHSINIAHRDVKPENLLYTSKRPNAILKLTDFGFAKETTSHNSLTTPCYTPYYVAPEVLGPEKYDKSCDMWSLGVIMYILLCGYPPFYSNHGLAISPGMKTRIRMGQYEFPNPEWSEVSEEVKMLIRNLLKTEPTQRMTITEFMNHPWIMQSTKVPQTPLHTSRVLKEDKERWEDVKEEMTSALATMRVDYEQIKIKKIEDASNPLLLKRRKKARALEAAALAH
# p38a activated, mitogen-activated protein kinase-activated protein kinase 2 (MAPKAP-K2 or MK-2) enzyme, sequence (P49137 whole entry): as above
EC50 [1],MK2 Mass Mod [2],IC50 [3],SMILES
> 1000 nM,E (mass modification of ≥70%),501 to 999 nM,"C=CC(=O)Nc1cc(-c2cc3c(ccc4c5c(n(C)c43)CCC5=O)cn2)cnc1OC [II-e-21, N-(2-methoxy-5-(10-methyl-7-oxo-7,8,9,10-tetrahydrocyclopenta[4,5]pyrrolo[2,3-f]isoquinolin-2-yl)pyridin-3-yl)acrylamide]"
501 to 999 nM,E (mass modification of ≥70%),< 100 nM,"C=CC(=O)Nc1cc(-c2cc3c(ccc4c5c([nH]c43)CCC5=O)cn2)ccc1N1CCN(C(C)=O)CC1 [II-e-23, N-(2-(4-acetylpiperazin-1-yl)-5-(7-oxo-7,8,9,10-tetrahydrocyclopenta[4,5]pyrrolo[2,3-f]isoquinolin-2-yl)phenyl)acrylamide]"
< 100 nM,E (mass modification of ≥70%),< 100 nM,"C=CC(=O)Nc1cc(-c2ccc3c(ccc4sc5c(c43)NC[C@@H](C)NC5=O)n2)cnc1C [III-1, (R)—N-(2-methyl-5-(10-methyl-8-oxo-9,10,11,12-tetrahydro-8H-[1,4]diazepino[5′,6′:4,5]thieno[3,2-f]quinolin-3-yl)pyridin-3-yl)acrylamide]"
< 100 nM,E (mass modification of ≥70%),< 100 nM,"C=CC(=O)Nc1cc(NC(=O)c2ccc3sc4c(c3c2)NC[C@@H](C)NC4=O)ccc1N1CCCC1 [III-3, (R)—N-(3-acrylamido-4-(pyrrolidin-1-yl)phenyl)-3-methyl-5-oxo-2,3,4,5-tetrahydro-1H-benzo[4,5]thieno[3,2-e][1,4]diazepine-9-carboxamide]"
> 1000 nM,E (mass modification of ≥70%),< 100 nM,"C=CC(=O)Nc1cc(NC(=O)c2ccc3sc4c(c3c2)NC[C@@H](C)NC4=O)ccc1N1CCNCC1 [III-5, (R)—N-(3-acrylamido-4-(piperazin-1-yl)phenyl)-3-methyl-5-oxo-2,3,4,5-tetrahydro-1H-benzo[4,5]thieno[3,2-e][1,4]diazepine-9-carboxamide]"
< 100 nM,E (mass modification of ≥70%),< 100 nM,"C=CC(=O)Nc1cc(NC(=O)c2ccc3sc4c(c3c2)NC[C@@H](C)NC4=O)ccc1F [III-6, (R)—N-(3-acrylamido-4-fluorophenyl)-3-methyl-5-oxo-2,3,4,5-tetrahydro-1H-benzo[4,5]thieno[3,2-e][1,4]diazepine-9-carboxamide]"
> 1000 nM,E (mass modification of ≥70%),< 100 nM,"C=CC(=O)Nc1cc(NC(=O)c2ccc3sc4c(c3c2)NC[C@@H](C)NC4=O)ccc1OCCOC [III-7, (R)—N-(3-acrylamido-4-(2-methoxyethoxy)phenyl)-3-methyl-5-oxo-2,3,4,5-tetrahydro-1H-benzo[4,5]thieno[3,2-e][1,4]diazepine-9-carboxamide]"
> 1000 nM,E (mass modification of ≥70%),101 to 500 nM,"C=CC(=O)Nc1ccccc1NC(=O)c1ccc2sc3c(c2c1)NC[C@@H](C)NC3=O [III-10, (R)—N-(2-acrylamidophenyl)-3-methyl-5-oxo-2,3,4,5-tetrahydro-1H-benzo[4,5]thieno[3,2-e][1,4]diazepine-9-carboxamide]"
< 100 nM,E (mass modification of ≥70%),< 100 nM,"C=CC(=O)N1CCOc2ccc(NC(=O)c3ccc4sc5c(c4c3)NC[C@@H](C)NC5=O)cc21 [III-11, (R)—N-(4-acryloyl-3,4-dihydro-2H-benzo[b][1,4]oxazin-6-yl)-3-methyl-5-oxo-2,3,4,5-tetrahydro-1H-benzo[4,5]thieno[3,2-e][1,4]diazepine-9-carboxamide]"
501 to 999 nM,F (mass modification of 31-69%),< 100 nM,"C=CC(=O)Nc1cccc(NC(=O)c2ccc3sc4c(c3c2)NC[C@@H](C)NC4=O)c1 [III-12, (R)—N-(3-acrylamidophenyl)-3-methyl-5-oxo-2,3,4,5-tetrahydro-1H-benzo[4,5]thieno[3,2-e][1,4]diazepine-9-carboxamide]"
< 100 nM,F (mass modification of 31-69%),< 100 nM,"C=CC(=O)Nc1cc(-c2ccc3c(ccc4sc5c(c43)NC[C@@H](C)NC5=O)n2)ccc1F [III-13, (R)—N-(2-fluoro-5-(10-methyl-8-oxo-9,10,11,12-tetrahydro-8H-[1,4]diazepino[5′,6′:4,5]thieno[3,2-f]quinolin-3-yl)phenyl)acrylamide]"
< 100 nM,E (mass modification of ≥70%),< 100 nM,"C=CC(=O)N1C[C@@H](C)Oc2ccc(NC(=O)c3ccc4sc5c(c4c3)NC[C@@H](C)NC5=O)cc21 [III-31, (R)—N—((R)-4-acryloyl-2-methyl-3,4-dihydro-2H-benzo[b][1,4]oxazin-6-yl)-3-methyl-5-oxo-2,3,4,5-tetrahydro-1H-benzo[4,5]thieno[3,2-e][1,4]diazepine-9-carboxamide]"
> 1000 nM,E (mass modification of ≥70%),< 100 nM,C=CC(=O)N1CCC[C@@H](NC(=O)c2ccc3sc4c(c3c2)NC[C@@H](C)NC4=O)C1 [III-42]
101 to 500 nM,E (mass modification of ≥70%),< 100 nM,C=CS(=O)(=O)N1CCC[C@@H](NC(=O)c2ccc3sc4c(c3c2)NC[C@@H](C)NC4=O)C1 [III-44]
< 100 nM,E (mass modification of ≥70%),< 100 nM,"C=CC(=O)N1CCCC(NC(=O)c2ccc3sc4c(c3c2)NC[C@@H](C)NC4=O)C1 (stereo partly drawn) [III-51, (3R)—N-(1-acryloylpiperidin-3-yl)-3-methyl-5-oxo-2,3,4,5-tetrahydro-1H-benzo[4,5]thieno[3,2-e][1,4]diazepine-9-carboxamide]"
> 1000 nM,E (mass modification of ≥70%),< 100 nM,"C=CC(=O)N1C[C@H](C)Oc2ccc(NC(=O)c3ccc4sc5c(c4c3)NC[C@@H](C)NC5=O)cc21 [III-53, (R)—N—((S)-4-acryloyl-2-methyl-3,4-dihydro-2H-benzo[b][1,4]oxazin-6-yl)-3-methyl-5-oxo-2,3,4,5-tetrahydro-1H-benzo[4,5]thieno[3,2-e][1,4]diazepine-9-carboxamide]"
101 to 500 nM,E (mass modification of ≥70%),< 100 nM,"C=CC(=O)Nc1cc(-c2ccc3c(ccc4sc5c(c43)NC[C@@H](C)NC5=O)n2)ccc1Cl [III-54, (R)—N-(2-chloro-5-(10-methyl-8-oxo-9,10,11,12-tetrahydro-8H-[1,4]diazepino[5′,6′:4,5]thieno[3,2-f]quinolin-3-yl)phenyl)acrylamide]"
101 to 500 nM,E (mass modification of ≥70%),< 100 nM,"C=CC(=O)Nc1cc(-c2ccc3c(ccc4sc5c(c43)NC[C@@H](C)NC5=O)n2)ccc1C1CCN(C)CC1 [III-58, (R)—N-(5-(10-methyl-8-oxo-9,10,11,12-tetrahydro-8H-[1,4]diazepino[5′,6′:4,5]thieno[3,2-f]quinolin-3-yl)-2-(1-methylpiperidin-4-yl)phenyl)acrylamide]"
> 1000 nM,E (mass modification of ≥70%),101 to 500 nM,"C=CC(=O)Nc1cc(OCC)ccc1Nc1c(C)c(NC2CCCNC2)nc2ccnn12 (stereo not drawn) [IV-2, N-(5-ethoxy-2-((6-methyl-5-(piperidin-3-ylamino)pyrazolo [1,5-a]pyrimidin-7-yl)amino)phenyl)acrylamide]"
